Experimental findings from ChEMBL document CHEMBL5614367, “Hydroxamic acid hybrids: Histone deacetylase inhibitors with anticancer therapeutic potency” (Eur J Med Chem, 2023) are described below.

For series [1], the system named is U-87 MG. Briefly: Antitumor activity against luciferase-transferred human U-87 MG cells xenografted in athymic nude mouse assessed as survival time at 150 mg/kg, po measured for 20 days. The series is classed as functional, U-87MG ATCC. The note with it: time 20 day.
Series [2] relates to C6. The series is described as follows: Antitumor activity against rat C6 cells allografted in Sprague-Dawley rat assessed as survival time at 150 mg/kg, po measured for 20 days. The series is classed as functional. Conditions: time 20 day.
Series [3] has as its system C6. Briefly: Antitumor activity against rat C6 cells allografted in Sprague-Dawley rat assessed as survival time at 20 mg/kg, po measured for 20 days. Type of series: functional. Conditions: time 20 day.
Series [4] concerns the target T1, Protein deacetylase HDAC6 (Homo sapiens, UniProt Q9UBN7).
T1 sequence (Q9UBN7 whole entry): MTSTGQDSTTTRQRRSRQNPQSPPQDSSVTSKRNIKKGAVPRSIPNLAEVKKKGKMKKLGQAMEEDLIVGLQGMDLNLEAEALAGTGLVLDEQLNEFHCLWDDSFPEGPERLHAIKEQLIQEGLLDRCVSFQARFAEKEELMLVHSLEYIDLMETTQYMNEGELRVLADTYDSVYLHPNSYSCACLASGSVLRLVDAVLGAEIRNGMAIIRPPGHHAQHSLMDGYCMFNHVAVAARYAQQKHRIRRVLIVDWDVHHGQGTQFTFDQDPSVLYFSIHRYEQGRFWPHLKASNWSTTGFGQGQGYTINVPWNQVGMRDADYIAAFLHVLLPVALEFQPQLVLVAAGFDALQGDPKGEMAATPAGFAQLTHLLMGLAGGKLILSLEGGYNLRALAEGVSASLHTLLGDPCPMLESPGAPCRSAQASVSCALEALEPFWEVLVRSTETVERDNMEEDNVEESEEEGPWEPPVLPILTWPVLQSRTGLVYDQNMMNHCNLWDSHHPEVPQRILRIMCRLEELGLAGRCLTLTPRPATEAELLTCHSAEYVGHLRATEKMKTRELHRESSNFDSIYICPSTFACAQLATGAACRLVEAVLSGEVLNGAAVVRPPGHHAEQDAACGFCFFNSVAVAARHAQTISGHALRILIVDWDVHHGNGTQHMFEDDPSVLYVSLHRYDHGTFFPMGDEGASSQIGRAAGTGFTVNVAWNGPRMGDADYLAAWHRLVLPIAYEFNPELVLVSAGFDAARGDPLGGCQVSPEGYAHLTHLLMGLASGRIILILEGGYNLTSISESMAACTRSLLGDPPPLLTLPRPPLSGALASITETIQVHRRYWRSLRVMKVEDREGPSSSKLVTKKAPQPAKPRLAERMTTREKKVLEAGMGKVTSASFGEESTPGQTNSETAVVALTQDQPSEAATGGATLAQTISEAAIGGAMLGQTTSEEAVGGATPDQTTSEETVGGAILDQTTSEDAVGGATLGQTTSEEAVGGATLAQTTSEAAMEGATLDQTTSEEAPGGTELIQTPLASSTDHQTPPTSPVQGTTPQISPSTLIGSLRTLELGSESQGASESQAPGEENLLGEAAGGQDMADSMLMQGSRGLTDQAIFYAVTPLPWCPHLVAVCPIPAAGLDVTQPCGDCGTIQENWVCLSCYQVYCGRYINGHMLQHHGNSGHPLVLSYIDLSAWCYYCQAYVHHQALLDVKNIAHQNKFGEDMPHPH
The series is described as follows: Inhibition of HDAC6 (unknown origin).

Series [5] has as its system U-87 MG. Briefly: Antitumor activity against luciferase-transferred human U-87 MG cells xenografted in athymic nude mouse assessed as survival time at 25 mg/kg, po measured for 20 days. Type of series: functional, U-87MG ATCC. Conditions: time 20 day.
For series [6], the system named is U-87 MG. Briefly: cells. Type of series: functional, cell-based, U-87MG ATCC. The note with it: Homo sapiens, 72 h.
Description: Antiproliferative activity against human U-87 MG cells assessed as inhibition of cell growth measured after 72 hrs by MTT assay
Series [7] deals with C6. Briefly: cells. Type of series: functional, cell-based. Conditions: Rattus norvegicus, C6, 72 h.
Description: Antiproliferative activity against rat C6 cells assessed as inhibition of cell growth measured after 72 hrs by MTT assay
The target in another series is T2, Histone deacetylase 8 (Homo sapiens, UniProt Q9BY41).
T2 sequence (Q9BY41 whole entry): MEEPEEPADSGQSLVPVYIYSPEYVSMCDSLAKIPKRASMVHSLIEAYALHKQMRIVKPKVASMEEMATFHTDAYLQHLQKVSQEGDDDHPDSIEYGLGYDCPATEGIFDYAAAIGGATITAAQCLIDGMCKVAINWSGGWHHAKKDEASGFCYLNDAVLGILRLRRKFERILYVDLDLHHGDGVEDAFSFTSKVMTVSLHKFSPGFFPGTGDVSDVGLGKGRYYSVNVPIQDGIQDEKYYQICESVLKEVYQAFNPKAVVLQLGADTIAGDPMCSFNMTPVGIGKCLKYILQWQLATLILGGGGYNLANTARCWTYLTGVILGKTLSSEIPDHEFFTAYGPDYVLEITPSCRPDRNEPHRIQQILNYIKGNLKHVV
Briefly: Inhibition of HDAC8 (unknown origin).

The subject of series [8] is BE(2)-C. The series is described as follows: Antitumor activity against human BE2C cells xenografted in mouse assessed as tumor growth inhibition at 50 mg/kg, ip relative to control. Conditions: read-out: TGI. Type of series: functional.
Series [9] can be described thus: Metabolic stability in liver microsomes (unknown origin) assessed as half life. The series is classed as ADME, Microsome.
A short description of series [10]: Metabolic stability in liver microsomes (unknown origin) assessed as clearance. The note with it: read-out: CLH. Type of series: ADME, Microsome.
Series [11] relates to BE(2)-C. Briefly: Antitumor activity against human BE2C cells xenografted in mouse assessed as tumor growth inhibition at 5 mg/kg, ip in presence of 50 mg/kg vorinostat relative to control. The series is classed as functional. Conditions: read-out: TGI.
The subject of series [12] is BE(2)-C. The series is described as follows: Antitumor activity against human BE2C cells xenografted in mouse assessed as tumor growth inhibition at 5 mg/kg, ip relative to control. Type of series: functional. The note with it: read-out: TGI.
For series [13], the system named is SK-OV-3. The series is described as follows: Antitumor activity against human SK-OV-3 cells xenografted in female Balb/c nude mouse assessed as reduction in tumor growth at 50 mg/kg, sc administered once a day and measured every 2 to 3 days for 19 days relative to control. The arrangement: scale not given: the % may be the effect or the level left. Conditions: time 19 day. The series is classed as functional.

The subject of series [14] is SK-OV-3. Briefly: Antiproliferative activity against human SK-OV-3 cells assessed as inhibition of cell growth incubated for 72 hrs by CCK-8 assay. The note with it: SK-OV-3, 72 h. Type of series: functional, cell-based.
In a further series the test system is A2780. Briefly: Antiproliferative activity against human A2780 cells assessed as inhibition of cell growth incubated for 72 hrs by CCK-8 assay. The series is classed as functional, cell-based. The note with it: A2780, 72 h.

In the case of `O=C(CCCCCCC(=O)Nc1ccccc1)NO` [VORINOSTAT], the Survival in the series with U-87 MG [1] and in the series with C6 [2] was 13 days in each case.
As for `O=C(/C=C/c1cccc(S(=O)(=O)n2ccc3cccnc32)c1)NO`, the Survival with C6 [3] and with U-87 MG [5] was more than 20 days throughout. Moreover, the IC50 was 32 nM in [4], 1850 nM in the series on U-87 MG [6] and 2250 nM with C6 [7].
On to `COc1cc(-c2cccc(-c3ccc(/C=C/C(=O)NO)cc3)n2)cc(OC)c1OC`, for which half-maximal inhibition at Histone deacetylase 8 (IC50) was put at 117 nM. Besides, the inhibition in vivo at 50 mg/kg with BE(2)-C [8] is 61%. The half-life in series [9] amounted to 54.8 min. Besides, in [10], the CLint scaled came to 22.8 mL/min/kg.
In the case of `CC(=O)O[C@H]1C(=O)[C@@]2(C)[C@H]([C@H](OC(=O)c3ccccc3)[C@]3(O)C[C@H](OC(=O)[C@H](O)[C@@H](NC(=O)c4ccccc4)c4ccccc4)C(C)=C1C3(C)C)[C@]1(OC(C)=O)CO[C@@H]1C[C@@H]2O` [PACLITAXEL], the inhibition in vivo at 5 mg/kg with BE(2)-C [11] is 44%; with BE(2)-C [12], 30%.
Consider `COc1ccc(-c2cc(-c3ccc(C(C)C)cc3)cnc2NCc2ccc(C(=O)NO)cc2)cc1`, for which the IC50 worked out at 180 nM in series [4], 870 nM with SK-OV-3 [14] and 5400 nM in the series on A2780. The Activity in the series with SK-OV-3 [13] was approximately 35%.
